Consider 30 compounds from US8575360B2, “Derivatives of 6,7-dihydro-5H-imidazo[1,2-a]imidazole-3-carboxylic acid amides” (Boehringer Ingelheim International GmbH, priority 2009, dated 2013).

In the experiment the target is T1, LFA-1 (CD18/CD11a) binding to ICAM-1 (Homo sapiens, UniProt P05107+P20701).
T1 construct: followed by purified LFA-1 (in buffer of 50 mM triethylamine, 150 mM NaCl, 1% beta octylglucoside)
T1 sequence (P20701 26-1170): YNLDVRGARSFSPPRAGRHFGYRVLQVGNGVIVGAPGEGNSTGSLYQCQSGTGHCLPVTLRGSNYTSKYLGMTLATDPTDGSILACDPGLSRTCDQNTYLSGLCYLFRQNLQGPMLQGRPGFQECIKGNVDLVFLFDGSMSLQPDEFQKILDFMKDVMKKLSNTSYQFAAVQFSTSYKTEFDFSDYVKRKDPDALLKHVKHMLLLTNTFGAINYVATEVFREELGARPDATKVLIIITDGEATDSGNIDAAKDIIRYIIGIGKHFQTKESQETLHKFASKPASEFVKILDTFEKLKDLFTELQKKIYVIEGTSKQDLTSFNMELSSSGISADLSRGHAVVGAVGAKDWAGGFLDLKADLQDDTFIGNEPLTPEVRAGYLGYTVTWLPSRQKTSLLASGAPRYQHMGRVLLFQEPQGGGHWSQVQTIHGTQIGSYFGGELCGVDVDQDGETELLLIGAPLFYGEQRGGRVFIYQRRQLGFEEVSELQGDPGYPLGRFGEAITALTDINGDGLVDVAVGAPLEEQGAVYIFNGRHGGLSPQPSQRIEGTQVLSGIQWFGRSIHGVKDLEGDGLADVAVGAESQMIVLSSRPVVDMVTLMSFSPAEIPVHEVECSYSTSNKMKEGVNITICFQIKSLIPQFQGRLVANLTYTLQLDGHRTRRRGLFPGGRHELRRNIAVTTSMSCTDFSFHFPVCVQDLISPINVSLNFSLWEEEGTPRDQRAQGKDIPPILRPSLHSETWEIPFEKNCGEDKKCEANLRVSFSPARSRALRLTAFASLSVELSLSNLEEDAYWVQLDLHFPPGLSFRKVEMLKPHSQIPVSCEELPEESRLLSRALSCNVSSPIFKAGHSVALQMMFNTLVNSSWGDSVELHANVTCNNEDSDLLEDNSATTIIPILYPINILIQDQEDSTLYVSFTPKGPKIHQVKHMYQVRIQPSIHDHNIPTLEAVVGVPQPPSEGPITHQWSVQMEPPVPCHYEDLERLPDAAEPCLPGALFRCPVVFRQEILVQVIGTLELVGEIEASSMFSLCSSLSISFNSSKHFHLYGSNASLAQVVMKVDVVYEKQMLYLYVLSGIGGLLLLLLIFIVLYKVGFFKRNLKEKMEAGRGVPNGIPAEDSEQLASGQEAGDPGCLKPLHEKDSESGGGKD
T1 sequence (P05107 23-769 partner): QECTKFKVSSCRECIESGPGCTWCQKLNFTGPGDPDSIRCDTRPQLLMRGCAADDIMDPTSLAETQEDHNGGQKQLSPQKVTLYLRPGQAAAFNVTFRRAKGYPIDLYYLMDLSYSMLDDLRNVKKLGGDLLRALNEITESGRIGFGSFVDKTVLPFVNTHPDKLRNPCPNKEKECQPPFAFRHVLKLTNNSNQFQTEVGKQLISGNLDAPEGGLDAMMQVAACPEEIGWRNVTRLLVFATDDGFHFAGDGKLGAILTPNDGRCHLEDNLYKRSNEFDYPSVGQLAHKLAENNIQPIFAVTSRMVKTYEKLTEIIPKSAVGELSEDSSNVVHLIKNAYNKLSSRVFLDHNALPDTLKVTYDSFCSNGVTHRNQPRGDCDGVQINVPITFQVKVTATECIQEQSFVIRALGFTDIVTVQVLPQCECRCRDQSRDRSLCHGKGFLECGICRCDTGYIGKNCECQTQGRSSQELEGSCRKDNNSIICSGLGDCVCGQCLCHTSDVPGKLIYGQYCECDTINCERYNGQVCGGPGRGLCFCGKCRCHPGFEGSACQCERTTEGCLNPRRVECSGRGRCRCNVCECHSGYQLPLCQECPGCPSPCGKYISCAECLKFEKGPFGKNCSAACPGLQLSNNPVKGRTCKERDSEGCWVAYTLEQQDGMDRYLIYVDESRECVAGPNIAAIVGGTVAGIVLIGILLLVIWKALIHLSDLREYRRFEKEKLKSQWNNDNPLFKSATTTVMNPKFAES
Briefly: LFA-1/Biotin-sICAM-1 AlphaScreen assay: inhibition of LFA-1 binding to ICAM-1. The following applies: 37° C. 90 minutes, highest compound concentration 1 μM. The text has this:
Assay to Determine Inhibition of LFA-1 Binding to ICAM-1
This assay protocol is designed to study the direct antagonism, by a test compound, of the interaction of ICAM-1 with the Leukointegrin CD18/CD11a (LFA-1).
The LFA-1/Biotin-sICAM-1 molecular assay measures the ability of test compounds to inhibit binding of LFA-1 to Biotinylated-sICAM using AlphaScreen technology (Ref: Wilson, J, Rossi, C P, Carboni, S, Fremaux, C, Perrin, D, Soto, C, Kosco-Vilbois, M, and Scheer, A: A Homogeneous 384-Well High-Throughput Binding Assay for a TNF Receptor Using Alphascreen Technology. J Biomol Screen 2003; 8:522-532) that uses TS2/4(anti-LFA-1)-custom conjugated AlphaLisa acceptor beads and streptavidin-coated donor beads from PerkinElmer. The assay was performed in white OptiPlates-384 in a volume of 60 μL using assay buffer (Dulbecco's PBS containing calcium and magnesium, 2 mM MgCl2, 0.1 mM PMSF, 0.1% BSA, pH 7.1). To each well, Biotin-sICAM was added followed by purified LFA-1 (in buffer of 50 mM triethylamine, 150 mM NaCl, 1% beta octylglucoside, 2 mM MgCl2 neutralized to pH with 1M Tris-HCl, pH 7.5). For compound testing, compound was added in 5 uL to the above in 25 uL. LFA-1 and Biotin-sICAM-1 were used at concentrations that would yield a signal to background ratio of 8-10. The highest concentration of compound was 1 μM in 1% DMSO. Positive controls were wells without compound containing LFA-1, while blanks were wells without both compound and LFA-1. Plates were mixed and incubated at 37° C. for 90 minutes. This was followed by addition of 15 μL/well TS2/4-conjugated acceptor beads diluted in PBS containing 0.1% BSA for a final concentration of 10 μg/mL. The plates were mixed and incubated in the dark for 30 minutes at room temperature followed by addition of 15 μL/well streptavidin-coated donor beads diluted in PBS containing 0.1% BSA at a final concentration of 15 μg/mL. The plates were mixed and incubated in the dark for 60 minutes at room temperature and then read on an EnVision Multilabel Reader using AlphaScreen 384-well OptiPlate protocol.
Turning to `C[C@@]1(Cc2ccc(C#N)cc2)C(=O)N(c2cc(Cl)c(F)c(Cl)c2)c2ncc(C(=O)NC3(C(=O)NC4(c5ccc(-c6cn[nH]c6)cn5)CC4)CC3)n21` [Compound 11], the IC50 was 1.2 nM. In turn, `Cn1cc(-c2ccc(C3(NC(=O)C4(NC(=O)c5cnc6n5[C@](C)(Cc5ccc(C#N)cc5)C(=O)N6c5cc(Cl)c(F)c(Cl)c5)CC4)CC3)nc2)c(C2CC2)n1` [Compound 14] showed a concentration for half-maximal inhibition (IC50) of 1.1 nM. Compound `C[C@@]1(Cc2ccc(C#N)cc2)C(=O)N(c2cc(Cl)c(F)c(Cl)c2)c2ncc(C(=O)NC3(C(=O)NC4(c5ccc(-c6ccc(O)cc6)cn5)CC4)CC3)n21` [Compound 2] registered an IC50 of 1.1 nM. As to `C[C@@]1(Cc2ccc(C#N)cc2)C(=O)N(c2cc(Cl)cc(Cl)c2)c2ncc(C(=O)NC3(C(=O)NC4(c5ccc(-c6cnc7[nH]ccc7c6)cn5)CC4)CC3)n21` [Compound 146], the IC50 came out at 1.6 nM. For the compound `Cc1nn(C)cc1-c1cnc(C2(NC(=O)C3(NC(=O)c4cnc5n4[C@](C)(Cc4ccc(C#N)cc4)C(=O)N5c4cc(Cl)c(F)c(Cl)c4)CC3)CC2)nc1` [Compound 111], the IC50 was found to be 1.6 nM. The result for `C[C@@]1(Cc2ccc(C#N)cc2)C(=O)N(c2cc(Cl)cc(Cl)c2)c2ncc(C(=O)NC3(C(=O)NC4(c5ccc(-c6ccc(S(N)(=O)=O)cc6)cn5)CC4)CC3)n21` [Compound 132] reads 0.72 nM; that for `C[C@@]1(Cc2ccc(C#N)cc2)C(=O)N(c2cc(Cl)cc(Cl)c2)c2ncc(C(=O)NC3(C(=O)NC4(c5ccc(-c6ccc(CO)cc6)cn5)CC4)CC3)n21` [Compound 136], 0.56 nM.

As for `Cc1n[nH]c(C)c1-c1ccc(C2(NC(=O)C3(NC(=O)c4cnc5n4[C@](C)(Cc4ccc(C#N)cc4)C(=O)N5c4cc(Cl)cc(Cl)c4)CC3)CC2)nc1` [Compound 60], the IC50 was 0.96 nM. In the case of `Cn1cc(-c2cnc(C3(NC(=O)C4(NC(=O)c5cnc6n5[C@](C)(Cc5ccc(OC(F)(F)F)cc5)C(=O)N6c5cc(Cl)c(F)c(Cl)c5)CC4)CC3)nc2)cn1` [Compound 40, (R)-7-(3,5-Dichloro-4-fluoro-phenyl)-5-methyl-6-oxo-5-(4-trifluoromethoxy-benzyl)-6,7-dihydro-5H-imidazo[1,2-a]imidazole-3-carboxylic acid(1-{1-[5-(1-methyl-1H-pyrazol-4-yl)-pyrimidin-2-yl]-cyclopropylcarbamoyl}-cyclopropyl)-amide], the IC50 stood at 1.7 nM.

`Cc1ccc(-c2ccc(C3(NC(=O)C4(NC(=O)c5cnc6n5[C@](C)(Cc5ccc(C#N)cc5)C(=O)N6c5cc(Cl)c(F)c(Cl)c5)CC4)CC3)nc2)cn1` [Compound 18] showed an IC50 of 1.4 nM. The compound `C[C@@]1(Cc2ccc(OC(F)(F)F)cc2)C(=O)N(c2cc(Cl)c(F)c(Cl)c2)c2ncc(C(=O)NC3(C(=O)NC4(c5ccc(-c6ccc(=O)[nH]c6)cn5)CC4)CC3)n21` [Compound 108] displayed a half-inhibitory concentration (IC50) of 1.1 nM.

As for `Cc1nn(C)cc1-c1ccc(C(C)NC(=O)C(NC(=O)c2cnc3n2C(C)(Cc2ccc(C#N)cc2)C(=O)N3c2cc(Cl)c(F)c(Cl)c2)C(C)O)nc1` (stereo not drawn) [Compound 121], the half-inhibitory concentration (IC50) was 1.1 nM. On to `C[C@@]1(Cc2ccc(C#N)cc2)C(=O)N(c2cc(Cl)cc(Cl)c2)c2ncc(C(=O)NC3(C(=O)NC4(c5ccc(-c6cccc(C(N)=O)c6)cn5)CC4)CC3)n21` [Compound 66], for which the IC50 is 1.3 nM. Then `C[C@@]1(Cc2ccc(C#N)cc2)C(=O)N(c2cc(Cl)c(F)c(Cl)c2)c2ncc(C(=O)NC3(C(=O)NC4(c5ccc6cc(-c7cn[nH]c7)cnc6n5)CCC4)CC3)n21` [Compound 10], with 1 nM; and `C[C@@]1(Cc2ccc(OC(F)(F)F)cc2)C(=O)N(c2cc(Cl)c(F)c(Cl)c2)c2ncc(C(=O)NC3(C(=O)NC4(c5ncc(-c6ccc(CO)nc6)cn5)CC4)CC3)n21` [Compound 110], with 0.65 nM. `C[C@@]1(Cc2ccc(C#N)cc2)C(=O)N(c2cc(Cl)cc(Cl)c2)c2ncc(C(=O)NC3(C(=O)NC4(c5ccc(-c6cccc(C(=O)O)c6)cn5)CC4)CC3)n21` [Compound 52] displayed an IC50 of 0.72 nM. Regarding `C[C@@]1(Cc2ccc(C#N)cc2)C(=O)N(c2cc(Cl)c(F)c(Cl)c2)c2ncc(C(=O)NC3(C(=O)NC4(c5ccc(-c6ccc(CO)cc6)nn5)CC4)CC3)n21` [Compound 37], the IC50 stood at 0.89 nM. Turning to `Cn1cc(-c2cnc(C3(NC(=O)C4(NC(=O)c5cnc6n5[C@](C)(Cc5ccc(C#N)cc5)C(=O)N6c5cc(Cl)c(F)c(Cl)c5)CC4)CC3)nc2)cn1` [Compound 31], the IC50 came to 0.51 nM.

`Cn1cc(-c2ccc(C3(NC(=O)C4(NC(=O)c5cnc6n5[C@](C)(Cc5ccc(C#N)cc5)C(=O)N6c5cc(Cl)cc(C(F)(F)F)c5)CC4)CC3)nc2)cn1` [Compound 51]: the half-inhibitory concentration (IC50) turned out to be 1.2 nM. For `Cc1nn(C)cc1-c1ccc(C2(NC(=O)[C@@H](NC(=O)c3cnc4n3[C@](C)(Cc3ccc(C#N)cc3)C(=O)N4c3cc(Cl)c(F)c(Cl)c3)[C@@H](C)O)CC2)nc1` [Compound 155], the concentration for half-maximal inhibition (IC50) worked out at 0.56 nM. `C[C@@H](NC(=O)C1(NC(=O)c2cnc3n2[C@](C)(Cc2ccc(OC(F)(F)F)cc2)C(=O)N3c2cc(Cl)c(F)c(Cl)c2)CC1)c1ccc(-c2ccc(CO)nc2)cn1` [Compound 116]: the IC50 is 1.3 nM.

With `C[C@@]1(Cc2ccc(C#N)cc2)C(=O)N(c2cc(Cl)cc(Cl)c2)c2ncc(C(=O)NC3(C(=O)NC4(c5ccc(-c6cccc(CO)c6)cn5)CC4)CC3)n21` [Compound 143], the IC50 is 1.9 nM. In the case of `C[C@@H](NC(=O)C1(NC(=O)c2cnc3n2[C@](C)(Cc2ccc(C#N)cc2)C(=O)N3c2cc(Cl)c(F)c(Cl)c2)CC1)c1ccc(-c2ccc(CO)nc2)nc1` [Compound 160], the IC50 was determined as 0.59 nM.

`C[C@@]1(Cc2ccc(C#N)cc2)C(=O)N(c2cc(Cl)cc(Cl)c2)c2ncc(C(=O)NC3(C(=O)NC4(c5ccc(-c6cn[nH]c6)cn5)CC4)CC3)n21` [Compound 129]: the IC50 is 0.22 nM. The compound `C[C@@]1(Cc2ccc(C#N)cc2)C(=O)N(c2cc(Cl)c(F)c(Cl)c2)c2ncc(C(=O)NC3(C(=O)NC4(c5ccc(-c6ccc(CO)cc6)cn5)CC4)CC3)n21` [Compound 100] gave a concentration for half-maximal inhibition (IC50) of 1.3 nM. For the compound `Cn1cc(-c2ccc(C3(NC(=O)C4(NC(=O)c5cnc6n5[C@](C)(Cc5ccc(C#N)cc5)C(=O)N6c5cc(Cl)cc(Cl)c5)CC4)CC3)nc2)cn1` [Compound 149], the half-maximal inhibitory concentration (IC50) was 0.33 nM. Regarding `Cc1ccc(-c2cnc(C3(NC(=O)C4(NC(=O)c5cnc6n5[C@](C)(Cc5ccc(C#N)cc5)C(=O)N6c5cc(Cl)c(F)c(Cl)c5)CC4)CC3)nc2)cn1` [Compound 112], the IC50 was 0.54 nM. The result for `C[C@@]1(Cc2ccc(C#N)cc2)C(=O)N(c2cc(Cl)cc(Cl)c2)c2ncc(C(=O)NC3(C(=O)NC4(c5ccc(-c6ccc(S(C)(=O)=O)cc6)cn5)CC4)CC3)n21` [Compound 134] reads 0.64 nM; that for `CC1(Cc2ccc(C#N)cc2)C(=O)N(c2cc(Cl)cc(Cl)c2)c2ncc(C(=O)NC3(C(=O)NC4(c5ccc(-c6cnoc6)cn5)CC4)CC3)n21` (stereo not drawn) [Compound 127], 0.34 nM. The result for `C[C@@]1(Cc2ccc(C#N)cc2)C(=O)N(c2cc(Cl)c(F)c(Cl)c2)c2ncc(C(=O)NC3(C(=O)NC4(c5ccc(-c6cccc(C(N)=O)c6)cn5)CC4)CC3)n21` [Compound 70] reads 0.8 nM.
